Assay results as given in publication PMC9324262, “Selective CDK9 Inhibition by Natural Compound Toyocamycin in Cancer Cells” (Cancers, 2022).

Assays:
YB5 cells [1] = assay: GFP reactivation in YB5 cell-based system (flow cytometry); set-up: species or system human; details: for GFP expression in YB5 cells, adenosine analogues: Figure S2; for GFP+ cells: alone, screen control
Protocol: YB5 cells are derived from SW48 cells (human colon cancer cell line), and contain a single insertion of a DNA hypermethylated cytomegalovirus (CMV) promoter driving the green fluorescent protein (GFP) gene, as previously described. YB5 cells are cultured in L-15 medium supplemented with 10% fetal bovine serum and grown in log-phase in 1% CO2 atmosphere. YB5 cells were authenticated by DNA fingerprinting prior to drug screening and validation experiments. GFP expression in YB5 cells is silenced in >99.9% of the cells due to the CMV promoter DNA hypermethylation and repressive chromatin marks around the transcriptional start site. The human HCT116 colon cancer-derived GFP-reporter system, comprising a GFP gene under the control of an endogenously hypermethylated SFRP1 gene promoter, was kindly provided by Dr. Stephen Baylin (Johns Hopkins University). These cells are cultured in McCoy’s 5A medium supplemented with 10% fetal bovine serum and grown in log-phase in 5% CO2 atmosphere at 37 °C. The 451-Lu-BR melanoma cells were a kind gift from Dr. Raza Zaidi (Fels Institute for Cancer Research and Molecular Biology, Temple University School of Medicine, Philadelphia). These cells are derived from parental 451-LU cells that have acquired resistance to BRAF inhibitors. The 451-Lu-BR cells were cultured at 37 °C in Dulbecco’s Modified Eagle Medium (DMEM) supplemented with 10% fetal bovine serum, L-alanyl-L-glutamine (2 mM), and gentamycin (50 µg/mL) in 5% CO2 at 37 °C. The natural drug library (natural product set II) containing 120 compounds was obtained from the National Cancer Institute Developmental Therapeutics Program. Natural compounds were dissolved in DMSO (10 mM) in 96-well plates that were kept at −80°C until use. Toyocamycin, analogues of toyocamycin (sangivamycin, tubercidin, 3-deaza-adenosine, DZNep), CDK inhibitors, and epigenetic drugs (decitabine, SAHA, trichostatin A, depsipeptide) were purchased from Sigma-Aldrich (St. Louis, MO, USA,) for validation studies, dissolved in DMSO, and kept at −80 °C until use.
YB5 cells were seeded at 30,000 cell/mL in 96-well plates (6000 cells/well) and treated 3 days after seeding. Cells were exposed to 120 natural compounds in 5 different experimental conditions: (1) 72 h exposure at 10 µM followed by 24 h recovery period prior to analysis; (2) 24 h treatment at 50 µM prior to analysis; (3) 72 h exposure at 10 µM of the compound library followed by 24 h treatment with HDAC inhibitor trichostatin A (200 nM) prior to analysis; (4) 72 h exposure at 10 µM in simultaneous combination with decitabine (50 nM) followed by 24 h recovery period prior to analysis; and (5) 72 h treatment with decitabine (50 nM) followed by 24 h exposure with the natural compound library (50 µM) prior to analysis. The scheme of different dose schedules is shown Figure S1A. During screening, drugs and cell culture media were replaced every day. To ensure the quality and the reproducibility of the screen, each 96-well plate was designed to include 80 natural compounds, 4 untreated wells, 4 wells treated with decitabine (50 nM, 72 h), 4 wells treated with trichostatin A (200 nM, 24 h), and their combination with decitabine (50 nM, 72 h) followed by trichostatin A treatment (200 nM, 24 h) prior to flow cytometry analysis. The percentage of GFP-expressing cells in control wells (untreated or treated with known epigenetic drugs) was measured and was reproducible between different plates.
After treatment, YB5 cells were trypsinized for 15 min and resuspended in L-15 media containing propidium iodide (PI) to stain dead cells. GFP expression and PI staining were quantified by a BD LSR II flow cytometer (BD Biosciences, San Jose, CA, USA). A maximum of 10,000 cells was analyzed per well. Validations were performed using a Millipore Guava flow cytometer (EMD, Millipore, Burlington, MA, USA). […]

CDK9 = details: cited from earlier work
RNA-Pol II Ser2-P = assay: Western blot, RNA Pol II and phospho-Pol II Ser2; format: cell-based, human; details: HCT116, 1–10 µM, 16 h
Protocol: YB5 cells were harvested in 50 mM Tris-HCl, 1% NP-40, 1 mM EDTA, 1 mM EGTA, 0.25% sodium deoxycholate, 150 mM NaCl, 50 mM sodium fluoride, and 1X Complete protease cocktail (Roche, Basel, Switzerland) with 1 mM PMSF. The total protein concentration was measured in all samples by standard BCA protocol (Pierce-23225, Thermo Scientific, Waltham, MA, USA) to ensure that an equal amount of protein was added to each sample. Protein extracts were run on 12% SDS–PAGE precast gels (Bio-Rad, Hercules, CA, USA, 345-0118). Proteins were transferred to polyvinylidene difluoride (PVDF) membranes in 10 mmol/L CAPS (pH-11) containing 10% methanol and detected by using specific primary antibodies, horseradish peroxidase–conjugated secondary antibodies (GE Healthcare, Chicago, IL, USA), and an enhanced chemiluminescence reagent (Pierce). PVDF membranes were incubated with specific primary antibodies (actin—A5441, Sigma, St. Louis, MO, USA; HA-tagged—H9608, Sigma; FLAG-tagged—F3165, Sigma). FLAG- and HA-tagged CDK9 plasmids were a generous gift from Dr Bassel E. Sawaya (Temple University). For CDK9 target modulation, HCT116 colon cancer cells were treated with toyocamycin or known CDK9 inhibitor BAY1251152 (Selleckchem, Houston, TX, USA). Whole cell extracts were obtained by lysing cells with 25 mM Tris (pH 7.3) and 1% sodium dodecyl sulfate (SDS). After sonication, total protein concentrations were determined using Bradford protein assay. The following primary antibodies were used to investigate the effect of CDK9 inhibition: Pol II against the N-term region (sc-55492, Santa Cruz, Dallas, TX, USA), Pol II against the C-term region (39097, Active motif, Carlsbad, CA, USA), Pol II phospho CTD ser2 (14-9802-82, Invitrogen, Waltham, MA, USA), Rb (ab181616, Abcam, Cambridge, UK), Rb phospho T826 (ab133446, Abcam, Cambridge, UK), CDK9 (ab39098, Abcam, Cambridge, UK), and actin (ab1801, Abcam, Cambridge, UK). Images were acquired with an Image Quant LAS4000 device from GE Healthcare Life Sciences. Band intensity quantifications were calculated using ImageJ software, edition 1.53 [27].

YB5 cells [2] = assay: anchorage-dependent clonogenic assay; format: cell-based, human; details: 10–50 nM, 72 h treatment, 2 weeks drug-free
Protocol: Two hundred YB5 cells were seeded per well in 6-well plates. On the following day, YB5 cells were treated with toyocamycin for 24 h or 72 h. Decitabine (10–50 nM for 72 h) was used as a positive control for the loss of clonogenic potential. Drugs and media were replaced each day. After treatment, media was removed. YB5 cells were grown in drug-free media for 2 weeks to allow visible colony formation prior to colony staining (0.5% methylene blue in 50% methanol). YB5 colonies were counted manually.

SMILES | GFP expression in YB5 cells, adenosine analogues (YB5 cells [1]; 24 h) | CDK9 inhibition IC50 values (CDK9) | further results
Nc1nccc2c1ncn2[C@@H]1O[C@H](CO)[C@@H](O)[C@H]1O [3-deaza-adenosine] | only sangivamycin induced GFP expression | – | –
CC(=O)N[C@@H]1CCC[C@H](C(=O)Nc2cc(-c3cnn4c3CC(C)(C)C4)c(Cl)cn2)C1 [AZD-4573] | – | low nanomolar range | –
COc1cc(F)ccc1-c1cc(Nc2cc(CS(C)(=N)=O)ccn2)ncc1F (stereo not shown) [BAY1251152] | – | – | RNA Pol II band intensity, Pol II C-terminal antibody (RNA-Pol II Ser2-P): reduced the RNA Pol II band intensity; RNA-Pol II ser 2 phosphorylation (RNA-Pol II Ser2-P): significantly reduced
Nc1n[nH]c(N)c1N=Nc1ccc(O)cc1 [CAN-508] | – | low nanomolar range | –
Nc1nccc2c1ncn2C1C=C(CO)C(O)C1O (stereo not shown) [DZNep] | only sangivamycin induced GFP expression | – | –
COc1ccccc1-c1cc(Nc2cccc(CS(N)(=O)=O)c2)ncn1 [LDC000067] | – | low nanomolar range | –
Nc1nc(N[C@H]2C[C@@H]3CC[C@H]2C3)sc1C(=O)c1ccccc1[N+](=O)[O-] [MC180295] | – | – | GFP fluorescence, % of YB5 cells (YB5 cells [1]; 500 nM, 48 h): about 10%
CC(C)(C)c1cnc(CSc2cnc(NC(=O)C3CCNCC3)s2)o1 [SNS-032] | – | low nanomolar range | –
Nc1ncn([C@H]2C[C@H](O)[C@@H](CO)O2)c(=O)n1 [decitabine, 5-aza-2′-deoxycytidine] | – | – | colony formation (YB5 cells [2]): still produced colonies; GFP+ cells (YB5 cells [1]; 50 nM, 72 h): about 15%
NC(=O)c1cn([C@@H]2O[C@H](CO)[C@@H](O)[C@H]2O)c2ncnc(N)c12 [sangivamycin] | induced GFP expression in YB5 cells, but to a lesser extent than toyocamycin | – | GFP expression in YB5 cells, adenosine analogues (YB5 cells [1]; 24 h, listed as Sangivamycin): weak GFP activation; CDK9 inhibition (CDK9): direct CDK9 inhibition
CC(/C=C/C(=O)NO)=C\[C@@H](C)C(=O)c1ccc(N(C)C)cc1 [trichostatin A] | – | – | GFP+ cells (YB5 cells [1]; 200 nM, 24 h): about 6%
Nc1ncnc2c1ccn2[C@@H]1O[C@H](CO)[C@@H](O)[C@H]1O [tubercidin] | only sangivamycin induced GFP expression | – | –
